Data from patent publication US6825191B2, “Benzodiazepine derivatives” (Ajinomoto Co., Inc., priority 2000, dated 2004).
Structures can show the parent of a compound that is named as a salt.

What was measured:
[1] = biological target: T1, human thrombin (Homo sapiens, UniProt P00734); test: Determination of thrombin-inhibiting activity (chromogenic substrate S-2238, initial rate); type: biochemical; details: negative logarithm of concentration inhibiting 50% of initial rate, tris hydrochloride buffer pH 8.4, room temperature; for IC50: read-out: Thrombin-inhibiting activity (pIC50) (converted)
T1 construct: solution of human thrombin (a product of SIGMA Co.); purchased SIGMA Co
Experimental: Determination of Thrombin-inhibiting Activity
130 μL of 100 mM tris hydrochloride buffer adjusted to pH 8.4 was added to 10 μl of an aqueous solution of a test compound. Then 10 μl of a solution of human thrombin (a product of SIGMA Co.) adjusted to 2 units/ml with tris hydrochloride buffer of pH 8.4 was added to the resultant mixture. After the incubation at room temperature for 10 minutes, 50 μl of a solution of D-phenylalanine-L-pipecolyl-L-arginine-P-nitroanilide dihydrochloride (S-2238; a product of Daiichi Kagaku Yakuhin Co.) adjusted to 0.4 mM with tris hydrochloride buffer of pH 8.4 was added thereto. The absorbance was determined and then the initial reaction rate was determined. A control was prepared in the same manner as that described above except that the solution of the compound to be tested was replaced with 10 μl of tris hydrochloride buffer adjusted to pH 8.4. The absorbance was determined with MICROPLATE READER Model 3550-UV (a product of BIO RAD) at a wave length of 405 nm at intervals of 15 seconds for 16 minutes. The negative logarithm (pIC50) of a concentration of the test compound which inhibits 50% of the activity (initial rate) of the thrombin in the absence of the test compound was determined, and employed as the index of the activity of inhibiting thrombin.

[2] = biological target: T2, activated human blood coagulation factor X (Homo sapiens, UniProt P00742); test: Determination of activity of inhibiting the activated blood-coagulation factor X (chromogenic substrate, initial rate); type: biochemical; details: negative logarithm of concentration inhibiting 50% of initial rate, tris hydrochloride buffer pH 8.4, room temperature; for IC50: read-out: Activity of inhibiting activated blood coagulation factor X (pIC50) (converted)
T2 construct: purchased Enzyme Research Co
Experimental: Determination of Activity of inhibiting the Activated Blood-coagulation Factor X
130 μl of 100 mM tris hydrochloride buffer adjusted to pH 8.4 was added to 10 μl of an aqueous solution of a compound to be tested. Then 10 μl of a 0.5 unit/ml solution of activated human blood coagulation factor X (a product of Enzyme Research Co.) in tris hydrochloride buffer of pH 8.4 was added to the resultant mixture. After the incubation at room temperature for 10 minutes, 50 μl of a solution of N-benzoyl-L-isoleucyl-L-glutamyl-glycyl-L-arginyl-P-nitroanilide hydrochloride (a product of Peptide Institute Inc.) adjusted to 0.8 mM with tris hydrochloride (pH 8.4) was added thereto. The a absorbance was determined and then the initial reaction rate was determined. A control was prepared in the same manner as that described above except that the solution of the compound to be tested was replaced with 10 μl of tris hydrochloride buffer adjusted to pH 8.4. The absorbance was determined with MICROPLATE READER Model 3550-UV (a product of BIO RAD) at a wave length of 405 nm at intervals of 15 seconds for 16 minutes.

[3] = system: blood plasma; test: Determination of blood anticoagulating activity by prothrombin time (PT) determination method; type: biochemical, human; details: negative logarithm of concentration which elongated PT of the control to twice as long; blood plasma of healthy people
Experimental: Determination of Blood Anticoagulating Activity
The blood anticoagulating activity was determined by a prothrombin time (PT) determination method. The PT was determined as follows: The blood was taken from healthy people. 3.8% aqueous trisodium citrate solution was added to the blood in a volume ratio of 1:10. The blood plasma was separated by the centrifugation. 5 μl of DMSO solution containing a test compound was added to 45 μl of the blood plasma. After the incubation apt room temperature for 2 minutes, a test tube containing the blood plasma solution was placed in Sysmex CA-3000 fully automatic blood coagulation determination device (a product of Toa Medical Electronics Co., Ltd), and incubated at 37° C. for 3 minutes. 100 μl of Sysmex PT II (rabbit brain tissue thromboplastin, 13.2 mM calcium chloride; a product of Toa Medical Electronics Co., Ltd) was fed into the test tube. PT was automatically determined with the device. A sample containing 5 μl of DMSO in place of the solution of the test compound was used as the control. The negative logarithm (pPT2) of the concentration of the test compound which elongated PT of the control to the twice as long was determined, and employed as the index of the blood anticoagulating activity.

T2 sequence (P00742 235-488 limits assumed): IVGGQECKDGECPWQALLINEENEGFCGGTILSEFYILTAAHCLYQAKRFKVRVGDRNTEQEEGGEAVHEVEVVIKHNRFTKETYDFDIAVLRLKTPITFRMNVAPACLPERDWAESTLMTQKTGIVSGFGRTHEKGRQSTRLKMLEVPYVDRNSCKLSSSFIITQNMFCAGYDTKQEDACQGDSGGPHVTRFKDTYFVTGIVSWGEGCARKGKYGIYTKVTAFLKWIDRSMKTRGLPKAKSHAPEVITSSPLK
T2 sequence (P00742 41-179 partner limits assumed): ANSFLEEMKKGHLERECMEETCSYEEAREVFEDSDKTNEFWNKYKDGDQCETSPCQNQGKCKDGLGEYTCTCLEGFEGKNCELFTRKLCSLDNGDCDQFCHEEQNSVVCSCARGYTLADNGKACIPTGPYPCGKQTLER

Compound: 4-(4-chlorobenzoyl)-1-[4-(1-acetoimidoyl)-4-piperidyloxy]benzyl]-1,3,4,5-tetrahydrobenzo[e][1,4]diazepin-2-on trifluoroacetate [Compd. of Ex. 27]
- Thrombin-inhibiting activity (pIC50) [1]: <4.0
- Activity of inhibiting activated blood coagulation factor X (pIC50) [2]: 6.4
- Human blood anticoagulating activity (pPT2) [3]: 4.8

Compound: O=C(O)C(F)(F)F.O=C(c1ccc(Cl)cc1)N1CC(=O)N(CC2CCN(c3ccncc3)CC2)c2ccccc2C1 [Compd. of Ex. 2, 4-(4-chlorobenzoyl)-1-[1-(4-pyridyl)-4-piperidylmethyl]-1,3,4,5-tetrahydrobenzo[e][1,4]diazepin-2-on trifluoroacetate]
- IC50 [1]: > 100000 nM
- IC50 [2]: 398 nM
- Human blood anticoagulating activity (pPT2) [3]: 4.9

Compound: O=C(O)C(F)(F)F.O=C(c1ccc(Br)cc1)N1CC(=O)N(CC2CCN(c3ccncc3)CC2)c2ccccc2C1 [Compd. of Ex. 9, 4-(4-bromobenzoyl)-1-[1-(4-pyridyl)-4-piperidylmethyl]-1,3,4,5-tetrahydrobenzo[e][1,4]diazepin-2-on trifluoroacetate]
- IC50 [1]: > 100000 nM
- IC50 [2]: 501 nM
- Human blood anticoagulating activity (pPT2) [3]: 4.9

Compound: O=C(c1ccc(Cl)s1)N1CC(=O)N(CC2CCN(c3ccncc3)CC2)c2ccccc2C1 [Compd. of Ex. 24, 4-(5-chlorothiophene-2-carbonyl)-1-[1-(4-pyridyl)-4-piperidylmethyl]-1,3,4,5-tetrahydrobenzo[e][1,4]diazepin-2-on trifluoroacetate]
- IC50 [1]: > 100000 nM
- IC50 [2]: 794 nM

Compound: O=C(O)C(F)(F)F.O=C(c1ccc(Br)s1)N1CC(=O)N(CC2CCN(c3ccncc3)CC2)c2ccccc2C1 [Compd. of Ex. 25, 4-(5-bromothiophene-2-carbonyl)-1-[1-(4-pyridyl)-4-piperidylmethyl]-1,3,4,5-tetrahydrobenzo[e][1,4]diazepin-2-on trifluoroacetate]
- IC50 [1]: > 100000 nM
- IC50 [2]: 398 nM
- Human blood anticoagulating activity (pPT2) [3]: 4.9

Compound: CC(=N)N1CCC(Oc2ccc(CN3C(=O)CN(C(=O)c4ccc(Cl)cc4)Cc4c(Cl)cccc43)cc2)CC1.O=C(O)C(F)(F)F [Compd. of Ex. 39, 6-chloro-4-(4-chlorobenzoyl)-1-[4-(1-(1-acetimidoyl)-4-piperidyloxy)benzyl]-1,3,4,5-tetrahydrobenzo[e][1,4]diazepin-2-on trifluoroacetate]
- Thrombin-inhibiting activity (pIC50) [1]: <4.0
- Activity of inhibiting activated blood coagulation factor X (pIC50) [2]: 6.7
- Human blood anticoagulating activity (pPT2) [3]: 4.8

Compound: CC(=N)N1CCC(Oc2ccc(CN3C(=O)CN(C(=O)c4ccc(Cl)cc4)Cc4ccc(C(=O)O)cc43)cc2)CC1.O=C(O)C(F)(F)F [Compd. of Ex. 43, 4-(4-chlorobenzoyl)-2-oxo-1-[4-(1-(1-acetimidoyl)-4-piperidyloxy)benzyl]-2,3,4,5-tetrahydro-1H-benzo[e][1,4]-diazepine-8-carboxylic acid trifluoroacetate]
- Thrombin-inhibiting activity (pIC50) [1]: <4.0
- Activity of inhibiting activated blood coagulation factor X (pIC50) [2]: 6.9
- Human blood anticoagulating activity (pPT2) [3]: 5.2

Compound: O=C(c1ccc(CN2C(=O)CN(C(=O)c3ccc(Cl)cc3)Cc3ccccc32)cc1)N1CC=CC1 [Compd. of Ex. 49, 1-[4-(2,5-dihydro-1H-pyrrol-1-ylcarbonyl)benzyl]-4-(4-chlorobenzoyl)-1,3,4,5-tetrahydrobenzo[e][1,4]-diazepin-2-on]
- IC50 [1]: 50100 nM
- IC50 [2]: 31.6 nM
- Human blood anticoagulating activity (pPT2) [3]: 5.0

Compound: O=C(O)CCc1ccc2c(c1)N(Cc1ccc(C(=O)N3CC=CC3)cc1)C(=O)CN(C(=O)c1ccc(Cl)cc1)C2 [Compd. of Ex. 65, 3-[4-(4-chlorobenzoyl)-2-oxo-1-[4-(2,5-dihydro-1H-pyrrol-1-ylcarbonyl)benzyl]-2,3,4,5-tetrahydro-1H-benzo[e][1,4]-diazepin-8-yl]propionic acid]
- IC50 [2]: 39.8 nM
- Human blood anticoagulating activity (pPT2) [3]: 4.7

Compound: O=C(CCc1ccc2c(c1)N(Cc1ccc(C(=O)N3CC=CC3)cc1)C(=O)CN(C(=O)c1ccc(Cl)cc1)C2)N1CCOCC1 [Compd. of Ex. 68, 4-(4-chlorobenzoyl)-8-(3-morpholine-4-yl-3-oxopropyl)-1-[4-(2,5-dihydro-1H-pyrrol-1-ylcarbonyl)benzyl]-1,3,4,5-tetrahydrobenzo[e][1,4]diazepin-2-on]
- IC50 [1]: 63100 nM
- IC50 [2]: 39.8 nM
- Human blood anticoagulating activity (pPT2) [3]: 5.2

Compound: O=C(c1ccc(CN2C(=O)CN(C(=O)c3ccc(Cl)cc3)Cc3ccc(CCP(=O)(O)O)cc32)cc1)N1CCCC1 [Compd. of Ex. 71-1, [2-(4-(4-chlorobenzoyl)-2-oxo-1-(4-(1-pyrrolidinecarbonyl)benzyl)-2,3,4,5-tetrahydro-1H-benzo[e][1,4]-diazepin-8-yl)ethyl]phosphonic acid]
- IC50 [1]: 31600 nM
- IC50 [2]: 25.1 nM
- Human blood anticoagulating activity (pPT2) [3]: 5.0

Compound: O=C(c1ccc(CN2C(=O)CN(C(=O)c3ccc(Cl)cc3)Cc3ccc(CCP(=O)(O)O)cc32)cc1)N1CC=CC1 [Compd. of Ex. 73, [2-(4-(4-chlorobenzoyl)-2-oxo-1-[4-(2,5-dihydro-1H-pyrrol-1-ylcarbonyl)benzyl]-2,3,4,5-tetrahydro-1H-benzo[e][1,4]-diazepin-8-yl)ethyl]phosphonic acid]
- IC50 [1]: 39800 nM
- IC50 [2]: 7.94 nM
- Human blood anticoagulating activity (pPT2) [3]: 4.9

Compound: O=C(c1ccc(CN2C(=O)CN(C(=O)c3ccc(Cl)cc3)Cc3ccc(CCCO)cc32)cc1)N1CC=CC1 [Compd. of Ex. 90]
- IC50 [1]: 79400 nM
- IC50 [2]: 39.8 nM
- Human blood anticoagulating activity (pPT2) [3]: 5.0

Compound: O=C(O)C(F)(F)F.O=C(c1ccc(CN2C(=O)CN(C(=O)c3ccc(Cl)cc3)Cc3ccc(CCCN4CCCCC4)cc32)cc1)N1CC=CC1 [Compd. of Ex. 93, 8-(3-piperidin-1-yl-propyl)-1-[4-(2,5-dihydro-1H-pyrrol-1-ylcarbonyl)benzyl]-4-(4-chlorobenzoyl)-1,3,4,5-tetrahydro-benzo[e][1,4]diazepin-2-on trifluoroacetate]
- IC50 [1]: 63100 nM
- IC50 [2]: 79.4 nM
- Human blood anticoagulating activity (pPT2) [3]: 5.5

Compound: N=C(c1ccc(CN2C(=O)CN(C(=O)c3ccc(Cl)cc3)Cc3ccccc32)cc1)N1CC=CC1.O=C(O)C(F)(F)F [Compd. of Ex. 107, 4-(4-chlorobenzoyl)-1-[4-(2,5-dihydro-1H-pyrrol-1-yl(imino)methyl)benzyl]-1,3,4,5-tetrahydrobenzo[e][1,4]-diazepin-2-on trifluoroacetate]
- IC50 [1]: > 100000 nM
- IC50 [2]: 50.1 nM
- Human blood anticoagulating activity (pPT2) [3]: 5.5

Compound: CC(C)N1CCN(C(=O)CCc2ccc3c(c2)N(Cc2ccc(C(=O)N4CC=CC4)cc2)C(=O)CN(C(=O)c2ccc(Cl)cc2)C3)CC1.O=C(O)C(F)(F)F [Compd. of Ex. 115, 4-(4-chlorobenzoyl)-1-[4-(2,5-dihydro-1H-pyrrol-1-ylcarbonyl)benzyl]-8-[3-(4-isopropyl-1-piperazinyl)-3-oxo-propyl]-1,3,4,5-tetrahydrobenzo[e][1,4]diazepin-2-on trifluoroacetate]
- IC50 [1]: 39800 nM
- IC50 [2]: 63.1 nM
- Human blood anticoagulating activity (pPT2) [3]: 5.4
